Experimental findings from US5395609A, “Synthetic peptides for use in tumor detection” (Antisoma Limited, priority 1989, dated 1995) are described below.

No end group written: not given here.

The assay has as its system metastatic lesions of pelvic melanoma. Put plainly: Imaging of metastatic lesions in a human patient with pelvic melanoma after intravenous radiolabelled peptide. It is filed as in vivo. Here is the method:
100 micrograms of the peptide […] labelled with technetium were administered intravenously as one single dose to a human patient with a pelvic melanoma which has metastrasised to the liver.

For “RGDSCRGDSY labelled with technetium: peptide RGDSCRGDSY labelled with technetium (also: labelled with technetium)”, the “uptake of radiolabelled peptide at metastatic lesions, early view” value (100 micrograms i.v. single dose, FIG. 2) is on record as “various sites of uptake (arrow) which correspond to the known metastatic lesions”. Also, the “retention of radiolabelled peptide by metastatic lesions” value (100 micrograms i.v., one hour later, FIG. 3) is reported as “retention of the radiolabelled peptide by the metastatic lesions”.
